# Test results as given in patent US20120208848A1 (NEUROSYSTEC CORPORATION, priority 2005, published 2012).
# How the values were obtained:
# Format in all cases: physicochemical
# [1] = Loss of 25 μM gacyclidine in polypropylene vials with and without SOLUTOL HS 15; conditions: 0.15 M NaCl, 37° C., one or three days
# Procedure: Some of these solutions also contained 0.1% SOLUTOL® HS 15.
# Although the results after three days of incubation parallel those obtained after one day of incubation at 37° C., the increased loss observed at low pH in the samples incubated for three days presumably reflected losses due to decomposition.
# [2] = Solubility of gacyclidine chloride salt and free base in water / Ringer's solution
# Source text: The free base form of gacyclidine is poorly soluble in water and adheres to plastic surfaces.
# [3] = Solubility of gacyclidine as a function of pH and excipients, room temperature, glass vials
# Procedure: Thereafter the mixture remained standing at room temperature for two days.
# The pH of the mixture was determined by use of a SympHony glass calomel micro combination pH electrode obtained from VWR (Cat. No. 14002-776). Oakton standard reference solutions at pH 7.00±0.01 (25° C.; 7.02 at 20° C.), 4.01±0.01 (25° C.; 4.00 at 20° C.) and 10.00 (25° C.; 10.05 at 20° C.) were obtained from Cole-Parmer. These standard pH solutions were used to calibrate a Cole-Parmer Model 5996-60 analog pH meter equipped with a SympHony electrode to within 0.01 pH units of reference solutions.
# [4] = Gacyclidine decomposition in Ringer's Lactate at 37° C.
# Procedure: To monitor piperidine formation a Zorbax SB-CN column (25×0.46 cm, 5 μm; PN 880975, SN USS F01 3866) purchased from Agilent Technologies was maintained at 30° C. and eluted with a mixture composed of 50% Buffer A and 50% Buffer B at 150 μL/minute for 60 minutes. Buffer A was composed of water containing 0.1% trifluoroacetic acid and Buffer B was composed of acetonitrile containing 0.1% trifluoroacetic acid. The effluent from this column was interfaced with an AQA single quadrupole mass spectrometer (Thermo Electron) and a Surveyor PDA detector (UV monitor, Thermo Electron). The column effluent was monitored at 232 nm and scans were collected between 200 to 300 nm by use of the PDA detector. […] Piperidine was detected by the mass spectrometer at 16.0 minutes after injection onto the Zorbax SB-CN column (at m/z=86 only). Piperidine could not be detected by use of the PDA (UV monitor).
# The pH of these Ringer's Lactate solutions was adjusted by addition of hydrochloric acid or sodium bicarbonate ([…]). […] To analyze these samples for gacyclidine and piperidine, the samples were first extracted with methylene chloride and then back-extracted into dilute hydrochloric acid. To the 0.40 mL sample to be analyzed were added 50 μL of 1.0 M sodium hydroxide and 0.8 mL of methylene chloride. After vigorous mixing, the aqueous and methylene chloride layers were allowed to separate. To 0.4 mL of the methylene chloride phase were added 20 μL of 1.0 M hydrochloric acid and 0.78 mL of water. After vigorous mixing, the aqueous and methylene chloride layers were allowed to separate and the aqueous layer was analyzed for gacyclidine and piperidine. This extraction procedure was necessary to remove the salt present in the sample for optimum detection of piperidine.
# [5] = Effect of pH on gacyclidine decomposition and solubility in Ringer's solution at 55° C.; conditions: 100 μM in Ringer's solution, 24 hours, pH 7.3 to 8.1, no excipient
# Procedure: These samples were then incubated at 55° C. for 24 hours.
# The pH of each sample was determined at 55° C. by use of a pH meter standardized at 55° C. The pH meter, electrode and standards were the same as described in Example 3.
# [6] = excess free base added to a solution at physiological pH
smiles,measurement,setting,value
"CC1CCCCC1(c1cccs1)N1CCCCC1.Cl (stereo not shown) [gacyclidine, 1-(2-methyl-1-thiophen-2-yl-cyclohexyl)-piperidine hydrochloride]",effect of 0.1% SOLUTOL on losses of gacyclidine from solution,[1],no effect
same,pH above which losses of gacyclidine were observed,[1],> 6
same,pH of solution,"[2]; chloride salt, up to 150 mg/ml in water or unbuffered solution",about 4.4
same,final concentration of dissolved gacyclidine,[2]; [6],≤ 0.02 mg/mL
same,pH of solution,[2]; [6],≤ 7.7
same,solubility,"[2]; pH 4.4, chloride salt of the acid form, water or unbuffered Ringer's solution, read-out: solubility (solutions containing up to)",≤ 150000 µg/mL
same,gacyclidine remaining in solution (HPLC),"[2]; pH 9.5, 0.05 M CAPSO, 0.1 M NaCl, 0.3 mg/mL added, room temperature, 2 days",0.0006 mg/mL
same,solubility thermodynamic,"[2]; saline or isotonic, thermodynamic from solid, free base in Ringer's solution reacting with dissolved carbon dioxide, pH 7.6",~20 µg/mL
same,gacyclidine remaining in solution at high pH,"[3]; 0.1% CAPTISOL, 1 mM added, room temperature, two days, glass",about 14 μM
same,gacyclidine remaining in solution at high pH,"[3]; 0.1% SOLUTOL HS15, 1 mM added, room temperature, two days, glass",~96 μM
same,gacyclidine remaining in solution at high pH,"[3]; 0.1% TWEEN 80, 1 mM added, room temperature, two days, glass",~42 μM
same,gacyclidine base maintained in solution per gram of carrier molecule,"[3]; CAPTISOL, room temperature",0.004 grams per gram of carrier mole
same,gacyclidine base maintained in solution per gram of carrier molecule,"[3]; SOLUTOL HS 15, room temperature",0.02 grams per gram of carrier mole
same,gacyclidine base maintained in solution per gram of carrier molecule,"[3]; TWEEN 80, room temperature",0.01 grams per gram of carrier mole
same,solubility kinetic at 2 days,"[3]; buffered aqueous solution, aqueous buffer, kinetic from dmso stock, pH 9.7, 1 mM added, room temperature, two days, glass, presence or absence of 0.1% SOLUPHOR P",2.6 µM
same,pH above which precipitation of gacyclidine was observed,[3]; hydrochloride salt diluted to 1 mM in buffered aqueous solution,> 7
same,"gacyclidine remaining in solution, % of the added gacyclidine","[3]; pH 9.7, 1 mM added, room temperature, two days, glass, presence or absence of 0.1% SOLUPHOR P",0.26%
same,solubility,"[3]; thermodynamic from solid, hydrochloride salt, water, read-out: final concentration giving a clear solution in water",≥ 550000 µM
same,pKa,"[4]; Ringer's Lactate solution, 37° C., from decomposition rates, read-out: apparent pKA",7.6
same,"Time for 10% Loss (37° C., Ringer's Lactate)","[4]; pH 5.5, 100 μM gacyclidine",3.7 ± 0.1 days
same,"Time for 10% Loss (37° C., Ringer's Lactate)","[4]; pH 6.0, 100 μM gacyclidine",3.82 ± 0.03 days
same,"Time for 10% Loss (37° C., Ringer's Lactate)","[4]; pH 7.4, 100 μM gacyclidine",6.1 ± 0.4 days
same,decomposition rate as % of the rate expected for the acid form,"[4]; pH 7.4, 37° C., Ringer's Lactate",62%
same,fraction of gacyclidine in the acid form,[4]; pH 7.4 and 37° C.,62%
same,loss of gacyclidine from solution,[5],loss of gacyclidine both by decomposition and by precipitation from solution
